PubChem BioAssay (NCI)
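1) Cells in 96-well plates. 2) Compound, 48 h, 5 concentrations. 3) Linear interpolation between surrounding doses. 4) Unreached endpoint = highest concentration. GI50: concentration for 50% inhibition of growth. TGI is the concentration that stops growth completely.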

Experiments:
Assay in all cases: growth of human tumour cells (NCI), 48 h
786-0 renal = tested on: 786-0 renal
OVCAR-3 ovarian = tested on: OVCAR-3 ovarian
IGROV1 ovarian = tested on: IGROV1 ovarian
SN12C renal = tested on: SN12C renal
NCI-H460 lung = tested on: NCI-H460 lung
TK-10 renal = tested on: TK-10 renal
MDA-MB-231 breast = tested on: MDA-MB-231 breast
MOLT-4 leukemia = tested on: MOLT-4 leukemia
RXF 393 renal = tested on: RXF 393 renal
HT29 colon = tested on: HT29 colon
LOX IMVI melanoma = tested on: LOX IMVI melanoma
A498 renal = tested on: A498 renal
OVCAR-5 ovarian = tested on: OVCAR-5 ovarian
MCF7 breast = tested on: MCF7 breast
SF-268 CNS = tested on: SF-268 CNS
HS 578T breast = tested on: HS 578T breast
SW-620 colon = tested on: SW-620 colon
UO-31 renal = tested on: UO-31 renal
U251 CNS = tested on: U251 CNS
CCRF-CEM leukemia = tested on: CCRF-CEM leukemia
NCI-H23 lung = tested on: NCI-H23 lung
NCI/ADR-RES ovarian = tested on: NCI/ADR-RES ovarian
SK-MEL-5 melanoma = tested on: SK-MEL-5 melanoma
HCT-15 colon = tested on: HCT-15 colon
KM12 colon = tested on: KM12 colon
OVCAR-8 ovarian = tested on: OVCAR-8 ovarian
HOP-92 NSCLC = tested on: HOP-92 NSCLC
NCI-H522 lung = tested on: NCI-H522 lung
SNB-19 CNS = tested on: SNB-19 CNS
MDA-MB-435 = tested on: MDA-MB-435
UACC-257 melanoma = tested on: UACC-257 melanoma
HCT-116 colon = tested on: HCT-116 colon
PC-3 prostate = tested on: PC-3 prostate
RPMI-8226 leukemia = tested on: RPMI-8226 leukemia
SR leukemia = tested on: SR leukemia
NCI-H226 lung = tested on: NCI-H226 lung
SK-MEL-28 melanoma = tested on: SK-MEL-28 melanoma
DU-145 prostate = tested on: DU-145 prostate
M14 melanoma = tested on: M14 melanoma
EKVX NSCLC = tested on: EKVX NSCLC
UACC-62 melanoma = tested on: UACC-62 melanoma
COLO 205 colon = tested on: COLO 205 colon
K-562 leukemia = tested on: K-562 leukemia
CAKI-1 renal = tested on: CAKI-1 renal
SNB-75 CNS = tested on: SNB-75 CNS
HCC-2998 colon = tested on: HCC-2998 colon
ACHN renal = tested on: ACHN renal
BT-549 breast = tested on: BT-549 breast
SF-539 CNS = tested on: SF-539 CNS
OVCAR-4 ovarian = tested on: OVCAR-4 ovarian
A549 NSCLC = tested on: A549 NSCLC
MALME-3M melanoma = tested on: MALME-3M melanoma
SK-MEL-2 melanoma = tested on: SK-MEL-2 melanoma
SF-295 CNS = tested on: SF-295 CNS
T-47D breast = tested on: T-47D breast

## COC1C(O)C(CO)OC(OC2C(O)COC(OC3C(C)OC(OC4C(O[C@H]5CC[C@@]6(C)C(CC=C7[C@H]6CCC68C(=O)O[C@@](C)(CCCC(C)C)[C@H]6[C@@H](OC(C)=O)C[C@@]78C)C5(C)C)OCC(OS(=O)(=O)O)C4O)C(OC4OCC(O)C(O)C4O)C3O)C2O)C1O (some centres undefined)
786-0 renal
  GI50: 134 nM
  TGI: 349 nM
OVCAR-3 ovarian
  GI50: 181 nM
IGROV1 ovarian
  GI50: 178 nM
  TGI: 499 nM
SN12C renal
  GI50: 110 nM
  TGI: 300 nM
NCI-H460 lung
  GI50: 315 nM
  TGI: 1450 nM
TK-10 renal
  GI50: 333 nM
  TGI: 855 nM
MDA-MB-231 breast
  GI50: 103 nM
  TGI: 325 nM
MOLT-4 leukemia
  GI50: 153 nM
  TGI: 368 nM
RXF 393 renal
  GI50: 184 nM
  TGI: 660 nM
HT29 colon
  GI50: 79.5 nM
  TGI: 221 nM
LOX IMVI melanoma
  GI50: 164 nM
  TGI: 357 nM
A498 renal
  GI50: 324 nM
  TGI: 821 nM
OVCAR-5 ovarian
  GI50: 241 nM
  TGI: 564 nM
MCF7 breast
  GI50: 166 nM
  TGI: 431 nM
SF-268 CNS
  GI50: 199 nM
  TGI: 685 nM
HS 578T breast
  GI50: 245 nM
  TGI: 598 nM
SW-620 colon
  GI50: 95.2 nM
  TGI: 272 nM
UO-31 renal
  GI50: 200 nM
  TGI: 746 nM
U251 CNS
  GI50: 120 nM
  TGI: 272 nM
CCRF-CEM leukemia
  GI50: 225 nM
  TGI: 775 nM
NCI-H23 lung
  GI50: 113 nM
  TGI: 287 nM
NCI/ADR-RES ovarian
  GI50: 207 nM
  TGI: 630 nM
SK-MEL-5 melanoma
  GI50: 473 nM
  TGI: 1130 nM
HCT-15 colon
  GI50: 177 nM
  TGI: 454 nM
KM12 colon
  GI50: 74.6 nM
  TGI: 193 nM
OVCAR-8 ovarian
  GI50: 165 nM
  TGI: 430 nM
HOP-92 NSCLC
  GI50: 93.4 nM
  TGI: 842 nM
NCI-H522 lung
  GI50: 194 nM
  TGI: 497 nM
SNB-19 CNS
  GI50: 149 nM
  TGI: 374 nM
MDA-MB-435
  GI50: 196 nM
  TGI: 532 nM
UACC-257 melanoma
  GI50: 1510 nM
  TGI: 3540 nM
HCT-116 colon
  GI50: 88.6 nM
  TGI: 229 nM
PC-3 prostate
  GI50: 159 nM
  TGI: 1870 nM
RPMI-8226 leukemia
  GI50: 163 nM
  TGI: 402 nM
SR leukemia
  GI50: 62.8 nM
  TGI: 238 nM
NCI-H226 lung
  GI50: 192 nM
  TGI: 484 nM
SK-MEL-28 melanoma
  GI50: 495 nM
  TGI: 2140 nM
DU-145 prostate
  GI50: 209 nM
  TGI: 656 nM
M14 melanoma
  GI50: 258 nM
  TGI: 894 nM
EKVX NSCLC
  GI50: 101 nM
  TGI: 565 nM
UACC-62 melanoma
  GI50: 175 nM
  TGI: 353 nM
COLO 205 colon
  GI50: 73.8 nM
  TGI: 286 nM
K-562 leukemia
  GI50: 92.3 nM
  TGI: 242 nM
CAKI-1 renal
  GI50: 303 nM
  TGI: 922 nM
SNB-75 CNS
  GI50: 214 nM
  TGI: 465 nM
HCC-2998 colon
  GI50: 130 nM
  TGI: 391 nM
ACHN renal
  GI50: 149 nM
  TGI: 298 nM
BT-549 breast
  GI50: 226 nM
  TGI: 523 nM
SF-539 CNS
  GI50: 215 nM
  TGI: 606 nM
OVCAR-4 ovarian
  GI50: 147 nM
  TGI: 433 nM
A549 NSCLC
  GI50: 56.8 nM
  TGI: 209 nM
MALME-3M melanoma
  GI50: 242 nM
  TGI: 671 nM
SK-MEL-2 melanoma
  GI50: 233 nM
  TGI: 2470 nM
SF-295 CNS
  GI50: 158 nM
  TGI: 389 nM
T-47D breast
  GI50: 200 nM
  TGI: 529 nM
